One compound from patent US10131679B2, “Substituted dihydropyrrolopyrazole compound” (UBE INDUSTRIES, LTD., priority 2014, dated 2018) can be followed below.

The subject of experiment [1] is human large intestine cancer cell line (HCT-116). Briefly: Human large intestine cancer (HCT-116) cell growth inhibition test. Type of experiment: cell-based. The following applies: 72 h, HCT-116, culture for 3 days, sulforhodamine B absorbance. A digest of the protocol:
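HCT-116 cells seeded at 1.0×10^3 cells/well in McCoy's 5a with 10% FBS, then exposed to compound (0.1% DMSO final) for 3 days. Growth measured by sulforhodamine B absorbance; IC50 derived from concentration-inhibition data.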

For experiment [2], the system named is IL-2 production in human peripheral blood mononuclear cell (PBMC). Put plainly: Human PBMC CD3/CD28-induced IL-2 production inhibition test. Format: cell-based. The note with it: 48 h, CD3/CD28 stimulation, incubation for 2 days, ELISA. An excerpt:
Human Peripheral Blood Mononuclear Cell (PBMC) CD3/CD28-Induced IL-2 Production Inhibition Test
PBMC was separated and collected by using Ficoll-Paque (17-1440-02 manufactured by GE Healthcare Japan Corp.) from blood collected from healthy human adult in the presence of heparin. RPMI1640 medium (manufactured by GIBCO/Thermo Fisher Scientific, Inc., REF. 11875) containing 10% FBS (manufactured by GIBCO/Thermo Fisher Scientific, Inc. REF. 10082) and containing a test compound dissolved in DMSO and 2 μg/mL anti-hCD28 (manufactured by R&D Systems, Inc., Cat. No. MAB342) was added at 100 μL/well to T cell Activation Plate Anti-Human CD3 96-well plate (manufactured by Corning Inc., REF. 354725), and subsequently, a PBMC suspension adjusted such that the number of cells was 2×10^6 cells/mL was added at 100 μL/well (final DMSO concentration: 0.1%). A RPMI1640 medium containing 10% FBS and containing 0.1% DMSO and 2 μg/mL anti-hCD28 was similarly added to wells not supplemented with the test compound. After incubation for 2 days in a carbon dioxide incubator, the culture supernatant was collected. The collected culture supernatant was stored at −20° C. until IL-2 content measurement.
In the measurement of IL-2 content in the culture supernatant, a sandwich ELISA kit Quantikine Human IL-2 (manufactured by R&D Systems, Inc., Cat. No. S2050) was used. The IL-2 content of each sample was calculated from the calibration curve of Standard IL-2 included in the kit. When the amount of IL-2 produced by CD3/CD28 stimulation in the case of the addition of only DMSO was defined as 100%, the rate of inhibition of IL-2 production at each concentration of the test compound was calculated. A test compound concentration inhibiting 50% of IL-2 production was calculated as an IC50 value (nM) from the concentration of the added test compound and the rate of inhibition of IL-2 production by the test compound by using EXSUS (version 8.0.0 or version 8.0.1, manufactured by CAC Exicare Corp.).
On the technique in general: In an ELISA, binding on a coated surface is turned into a signal by an enzyme label.

The subject of experiment [3] is Human keratinocytes (NHEK-Neo Pooled). Briefly: Human keratinocyte growth inhibition assay. The following applies: 48 h, culture for 2 days, Cell Counting Kit-8. Format: cell-based. The protocol:
Human Keratinocyte Growth Inhibition Assay
The measurement of a human keratinocyte growth inhibitory effect was carried out by modifying the method of Schafer et al. (British Journal of Pharmacology, 159, 842 (2011)).
Human keratinocytes (NHEK-Neo Pooled, manufactured by Lonza Group AG, Cat. No. 00192906) were cultured in KGM-Gold Bullet Kit (manufactured by Lonza Group AG, Cat. No. 00192060) and inoculated at 2.0×10^3 cells/well to a 96-well plate. After overnight culture in a carbon dioxide incubator, a test compound dissolved in DMSO (final DMSO concentration: 0.1%) was added and left standing in a carbon dioxide incubator. After culture for 2 days, the absorbance thereof was measured by using Cell Counting Kit-8 (343-07623 manufactured by Dojindo Laboratories)).
The rate of inhibition of cell growth at each concentration was calculated from the test compound concentration and the absorbance of Cell Counting Kit-8, and the concentration of the test compound necessary for inhibiting 50% of cell growth (IC50 value) was calculated by using EXSUS (version 8.0.0 or version 8.0.1, manufactured by CAC Exicare Corp.).
In general terms: Formazan colour is commonly taken as a measure of viable cells.

Experiment [4] deals with IL-6 production in rat adjuvant arthritis model. Briefly: IL-6 production inhibition test in rat adjuvant arthritis model. Type of experiment: in vivo, LEW rats. The note with it: single dose, administration of 10 mg/kg, left ankle, read-out: rate of inhibition of IL-6 production. The protocol:
IL-6 Production Inhibition Test in Rat Adjuvant Arthritis Model
A single-dose drug efficacy test using rat adjuvant arthritis models was carried out by modifying the method of Magari. K et al. (J. Rheumatol. 30 (10), 2193 (2003)).
LEW rats (female, supplied by Charles River Laboratories Japan, Inc.) were used as laboratory animals. An adjuvant prepared from heat-killed bacteria of Mycobacterium butyricum (264010 manufactured by Difco Laboratories Ltd.) and liquid paraffin (manufactured by Wako Pure Chemical Industries, Ltd., Code No. 128-04375) was subcutaneously administered as a phlogogenic material to the right hind leg footpads of the rats under inhalation anesthesia with isoflurane (manufactured by Wako Pure Chemical Industries, Ltd., Code No. 099-06571) to prepare arthritis models. Approximately 2 weeks later, left paw edema was measured with a paw volume meter (model TK-101CMP manufactured by Unicorn Co., Ltd.), and grouping was performed such that the average volume of left paw edema was equal among groups. A test compound or only a solvent was administered, after a certain time, they were sacrificed by exsanguination from the abdomens under isoflurane anesthesia, and the left ankles were collected, chopped, and frozen by using liquid nitrogen. The collected left ankle portions were disrupted in CRYOPress (model CP-100WP manufactured by Microtec Co., Ltd.), then supplemented with a buffer solution, shaken overnight at 4° C., and then centrifuged to collected a supernatant. The preparation of the buffer solution was performed by mixing a Tris buffer solution (pH 7.4), sodium chloride (NaCl), phenyl methyl sulfonyl fluoride (PMSF), Triton X-100, EDTA-free complete tablets (manufactured by F. Hoffmann-La Roche, Ltd., REF. 11 873 580 001), and Otsuka distilled water (manufactured by Otsuka Pharmaceutical Co., Ltd., product No. 1323). IL-6 in the collected supernatant was measured by using a sandwich ELISA kit (manufactured by R&D Systems, Inc., Catalog No. S6050).
The IL-6 content of each sample was calculated from the calibration curve of Standard IL-6 included in the kit. When the amount of IL-6 produced in the solvent administration control group was defined as 100%, the rate of inhibition of IL-6 production (%) at each dose of the test compound was calculated.

As usually defined, the IC50 is the midpoint of a concentration-inhibition curve. High values mean weaker potency in that assay, low ones greater potency in that assay. As for `COCC[C@@H](NC(=O)N1Cc2c(NC(=O)C3([Si](C)(C)C)CCC3)n[nH]c2C1(C)C)c1ccccc1` [IV-235, (R)—N-(3-Methoxy-1-phenylpropyl)-6,6-dimethyl-3-[1-(trimethylsilyl)cyclobutanecarboxamido]-4,6-dihydropyrrolo[3,4-c]pyrazole-5(1H)-carboxamide], the IC50 in experiment [1] is ≤ 500 nM; in experiment [2] it was ≤ 50 nM; in experiment [3] it was ≤ 500 nM. Moreover, the inhibition in vivo at 10 mg/kg in experiment [4] is ≥ 50%.
